Measurements reported in patent US7772179B2, “Photodynamic therapy using chemiluminescence and a ligand-photosensitiser conjugate” (priority 2005, dated 2010).

Key:
[1] = tested on: FL cells; test: LTC cytotoxicity assay (PDT with ambient fluorescent light), trypan blue exclusion; type: cell-based
Method: (§1) (C); 0.5-1×10^5 cells/ml were cultured for 2 hr in the dark in medium alone or containing Hp or Tf-Hp (0-3 μM), washed, exposed to ambient fluorescent light for 16 hrs at room temperature and then re-cultured in full medium for 24 hrs. Cell viability was assessed by trypan blue exclusion. The data represent the mean and standard deviation from at least 3 experiments;
(§2) Late log-phase cells were washed with DMEM pre-warmed to 37° C. and cultured at 0.5-1×10^5 cells/ml either alone or with increasing concentrations of Tf-Hp LTC for 2 hrs at 37° C. in 6% CO2. Cells were then washed with DMEM, exposed to ambient fluorescent light (fluence rate=0.5 mW/cm^2) for 12-16 hours and then re-cultured in full medium for 24 hrs. […] Experiments were repeated at least three times.

[2] = tested on: K562 cells; test: as above; type: cell-based, Human; conditions: K-562 cells, external ambient fluorescent light
Method: as §1, §2

[3] = tested on: FL cells; conditions: in the dark

Row | SMILES | maximum cytotoxicity (LDMAX) ([1]; FL cells, external ambient fluorescent light) [%] | sensitivity of FL cells relative to K-562 at LDMAX ([1]; free Hp treatment, FL versus K-562) | maximum activity (cytotoxicity) ([1]; optimization of the LTC cytotoxicity assay, about 2 hr exposure, cell line not stated) [%] | maximum cytotoxicity (LDMAX) [2] [%] | maximum cytotoxicity together with luminol ([3]; together with 10 μM luminol, no external light) [%] | cytotoxicity, luminol alone ([3]; 10 μM luminol, no Ps)
1 | CC1=C(CCC(=O)O)c2cc3[nH]c(cc4nc(cc5[nH]c(cc1n2)c(C)c5C(C)O)C(C)=C4C(C)O)c(C)c3CCC(=O)O (stereo not drawn) [Hp, hematoporphyrin] | 90 | 16.6 | 24 | 90 | 30 | –
2 | Nc1cccc2c(=O)[nH][nH]c(=O)c12 [luminol, 5-amino-2-3-dihydro-1,4-phtalazinedione] | – | – | – | – | – | about 15%
